We go through six compounds from ChEMBL document CHEMBL3608278 (J Med Chem, 2015).

Test [1] addresses T1, Potassium voltage-gated channel subfamily A member 3 (Homo sapiens, UniProt P22001). Details: species or system Blood.
Test [2] concerns the target T1, Potassium voltage-gated channel subfamily A member 3. The experiment in a line: cell-based. Details: species or system Blood.

T1 sequence (P22001 whole entry): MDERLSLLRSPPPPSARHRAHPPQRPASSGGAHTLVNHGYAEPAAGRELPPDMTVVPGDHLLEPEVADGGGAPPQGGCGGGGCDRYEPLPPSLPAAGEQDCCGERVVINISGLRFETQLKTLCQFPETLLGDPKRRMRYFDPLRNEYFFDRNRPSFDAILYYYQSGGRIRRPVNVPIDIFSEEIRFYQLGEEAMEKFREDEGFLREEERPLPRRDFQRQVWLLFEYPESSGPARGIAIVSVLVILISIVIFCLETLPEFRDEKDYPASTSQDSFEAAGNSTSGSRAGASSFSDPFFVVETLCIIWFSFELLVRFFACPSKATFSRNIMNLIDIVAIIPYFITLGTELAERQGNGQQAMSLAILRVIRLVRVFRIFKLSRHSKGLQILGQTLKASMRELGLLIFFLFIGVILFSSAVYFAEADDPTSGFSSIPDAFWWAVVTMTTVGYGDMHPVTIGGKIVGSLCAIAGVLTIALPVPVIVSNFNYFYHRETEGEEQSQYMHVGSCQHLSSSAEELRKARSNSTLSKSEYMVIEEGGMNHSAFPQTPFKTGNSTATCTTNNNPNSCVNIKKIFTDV

With `CC[C@H](C)[C@@H]1NC(=O)[C@@H](NC(=O)[C@H](CO)NC(=O)[C@@H](N)CCCNC(=N)N)CSSC[C@@H](C(=O)O)NC(=O)[C@H]([C@@H](C)O)NC(=O)CNC(=O)[C@@H]2CSSC[C@@H]3NC(=O)[C@H](CCC(N)=O)NC(=O)[C@H](Cc4ccccc4)NC(=O)[C@H](C)NC(=O)[C@H]([C@@H](C)O)NC(=O)[C@H](CSSC[C@H](NC(=O)[C@H](Cc4ccccc4)NC(=O)[C@H](CCC(=O)O)NC(=O)[C@H](CC(C)C)NC(=O)[C@H](CCCNC(=N)N)NC(=O)[C@H](Cc4ccc(O)cc4)NC(=O)[C@H](CCCCN)NC(=O)[C@H](CCSC)NC(=O)[C@H](CO)NC(=O)[C@H](Cc4cnc[nH]4)NC(=O)[C@H](CCCCN)NC3=O)C(=O)N[C@@H](CCCNC(=N)N)C(=O)N[C@@H](CCCCN)C(=O)N[C@@H]([C@@H](C)O)C(=O)N2)NC(=O)[C@H](CCCNC(=N)N)NC(=O)[C@H](CO)NC(=O)[C@H](CCCCN)NC(=O)[C@@H]2CCCN2C(=O)[C@H]([C@@H](C)CC)NC(=O)[C@H]([C@@H](C)O)NC(=O)[C@H](CC(=O)O)NC1=O`, the IC50 in test [1] was 400 pM; in test [2], 202 pM.

With `CC[C@H](C)[C@@H]1NC(=O)[C@@H](NC(=O)[C@H](CO)NC(=O)[C@@H](N)CCCNC(=N)N)CSSC[C@@H](C(=O)O)NC(=O)[C@H]([C@@H](C)O)NC(=O)CNC(=O)[C@@H]2CSSC[C@@H]3NC(=O)[C@H](CCC(N)=O)NC(=O)[C@H](Cc4ccccc4)NC(=O)[C@H](C)NC(=O)[C@H]([C@@H](C)O)NC(=O)[C@H](CSSC[C@H](NC(=O)[C@H](Cc4ccccc4)NC(=O)[C@H](CO)NC(=O)[C@H](CC(C)C)NC(=O)[C@H](CCCNC(=N)N)NC(=O)[C@H](Cc4ccc(O)cc4)NC(=O)[C@H](CCCCN)NC(=O)[C@H](CCSC)NC(=O)[C@H](CO)NC(=O)[C@H](Cc4cnc[nH]4)NC(=O)[C@H](CCCCN)NC3=O)C(=O)N[C@@H](CCC(=O)O)C(=O)N[C@@H](CCCCN)C(=O)N[C@@H]([C@@H](C)O)C(=O)N2)NC(=O)[C@H](CCCNC(=N)N)NC(=O)[C@H](CO)NC(=O)[C@H](CCCCN)NC(=O)[C@@H]2CCCN2C(=O)[C@H]([C@@H](C)CC)NC(=O)[C@H]([C@@H](C)O)NC(=O)[C@H](CC(=O)O)NC1=O`, the IC50 in test [1] is 1960 pM; in test [2], 730 pM.

On to `CC[C@H](C)[C@@H]1NC(=O)[C@@H](NC(=O)[C@H](CCCNC(=N)N)NC(=O)[C@@H](N)CCCNC(=N)N)CSSC[C@@H](C(=O)O)NC(=O)[C@H]([C@@H](C)O)NC(=O)CNC(=O)[C@@H]2CSSC[C@@H]3NC(=O)[C@H](CCC(N)=O)NC(=O)[C@H](Cc4ccccc4)NC(=O)[C@H](C)NC(=O)[C@H]([C@@H](C)O)NC(=O)[C@H](CSSC[C@H](NC(=O)[C@H](Cc4ccccc4)NC(=O)[C@H](CO)NC(=O)[C@H](CC(C)C)NC(=O)[C@H](CCCNC(=N)N)NC(=O)[C@H](Cc4ccc(O)cc4)NC(=O)[C@H](CCCCN)NC(=O)[C@H](CCSC)NC(=O)[C@H](CO)NC(=O)[C@H](Cc4cnc[nH]4)NC(=O)[C@H](CCCCN)NC3=O)C(=O)N[C@@H](CCCNC(=N)N)C(=O)N[C@@H](CCCCN)C(=O)N[C@@H]([C@@H](C)O)C(=O)N2)NC(=O)[C@H](CCCNC(=N)N)NC(=O)[C@H](CO)NC(=O)[C@H](CCCCN)NC(=O)[C@@H]2CCCN2C(=O)[C@H]([C@@H](C)CC)NC(=O)[C@H]([C@@H](C)O)NC(=O)[C@H](CC(=O)O)NC1=O`, for which the figures for the IC50 in test [1] and in test [2] were 116 pM and 87 pM, respectively.

On to `CC[C@H](C)[C@@H]1NC(=O)[C@@H](NC(=O)[C@H](CO)NC(=O)[C@@H](N)CCCNC(=N)N)CSSC[C@@H](C(=O)O)NC(=O)[C@H]([C@@H](C)O)NC(=O)CNC(=O)[C@@H]2CSSC[C@@H]3NC(=O)[C@H](CCC(N)=O)NC(=O)[C@H](Cc4ccccc4)NC(=O)[C@H](C)NC(=O)[C@H]([C@@H](C)O)NC(=O)[C@H](CSSC[C@H](NC(=O)[C@H](Cc4ccccc4)NC(=O)[C@H](CO)NC(=O)[C@H](CC(C)C)NC(=O)[C@H](CCCNC(=N)N)NC(=O)[C@H](Cc4ccc(O)cc4)NC(=O)[C@H](CCCCN)NC(=O)[C@H](CCSC)NC(=O)[C@H](CO)NC(=O)[C@H](Cc4cnc[nH]4)NC(=O)[C@H](CCCCN)NC3=O)C(=O)N[C@@H](CCCNC(=N)N)C(=O)N[C@@H](Cc3cccc4ccccc34)C(=O)N[C@@H]([C@@H](C)O)C(=O)N2)NC(=O)[C@H](CCCNC(=N)N)NC(=O)[C@H](CO)NC(=O)[C@H](CCCCN)NC(=O)[C@@H]2CCCN2C(=O)[C@H]([C@@H](C)CC)NC(=O)[C@H]([C@@H](C)O)NC(=O)[C@H](CC(=O)O)NC1=O`, for which the IC50 in test [1] is 148 pM; in test [2] it was 82 pM.

Consider `CC[C@H](C)[C@@H]1NC(=O)[C@@H](NC(=O)[C@H](CO)NC(=O)[C@@H](N)CCCNC(=N)N)CSSC[C@@H](C(=O)O)NC(=O)[C@H]([C@@H](C)O)NC(=O)CNC(=O)[C@@H]2CSSC[C@@H]3NC(=O)[C@H](CCC(N)=O)NC(=O)[C@H](Cc4ccccc4)NC(=O)[C@H](C)NC(=O)[C@H]([C@@H](C)O)NC(=O)[C@H](CSSC[C@H](NC(=O)[C@H](Cc4ccccc4)NC(=O)[C@H](CO)NC(=O)[C@H](CC(C)C)NC(=O)[C@H](CCCNC(=N)N)NC(=O)[C@H](Cc4ccc(O)cc4)NC(=O)[C@H](CCCCN)NC(=O)[C@H](CCSC)NC(=O)[C@H](CO)NC(=O)[C@H](Cc4c[nH]cn4)NC(=O)[C@H](CCCCN)NC3=O)C(=O)N[C@@H](CCCNC(=N)N)C(=O)N[C@@H](CCCCN)C(=O)N[C@@H]([C@@H](C)O)C(=O)N2)NC(=O)[C@H](CCCNC(=N)N)NC(=O)[C@H](CO)NC(=O)[C@H](CCCCN)NC(=O)[C@@H]2CCCN2C(=O)[C@H]([C@@H](C)CC)NC(=O)[C@H](CCC(=O)O)NC(=O)[C@H](CC(=O)O)NC1=O`, for which the results for the IC50 in test [1] and in test [2] were 109 pM and 74 pM, respectively.

Regarding `CC[C@H](C)[C@@H]1NC(=O)[C@@H](NC(=O)[C@H](CO)NC(=O)[C@@H](N)CCCNC(=N)N)CSSC[C@@H](C(=O)O)NC(=O)[C@H]([C@@H](C)O)NC(=O)CNC(=O)[C@@H]2CSSC[C@@H]3NC(=O)[C@H](CCC(N)=O)NC(=O)[C@H](Cc4ccccc4)NC(=O)[C@H](C)NC(=O)[C@H]([C@@H](C)O)NC(=O)[C@H](CSSC[C@H](NC(=O)[C@H](Cc4ccccc4)NC(=O)[C@H](CO)NC(=O)[C@H](CC(C)C)NC(=O)[C@H](CCCNC(=N)N)NC(=O)[C@H](Cc4ccc(O)cc4)NC(=O)[C@H](CCCCN)NC(=O)[C@H](CCSC)NC(=O)[C@H](CO)NC(=O)[C@H](Cc4cnc[nH]4)NC(=O)[C@H](CCCCN)NC3=O)C(=O)N[C@@H](CCCNC(=N)N)C(=O)N[C@@H](CCCCN)C(=O)N[C@@H]([C@@H](C)O)C(=O)N2)NC(=O)[C@H](CCCNC(=N)N)NC(=O)[C@H](CCC(=O)O)NC(=O)[C@H](CCCCN)NC(=O)[C@@H]2CCCN2C(=O)[C@H]([C@@H](C)CC)NC(=O)[C@H]([C@@H](C)O)NC(=O)[C@H](CC(=O)O)NC1=O`, the IC50 is 55 pM in test [1] and 23 pM in test [2].

As usually defined, the IC50 is the midpoint of a concentration-inhibition curve.
